Target: T1, CXXC5–DVL interaction (Homo sapiens, UniProt O14640)
T1 sequence (O14640 251-340 limits assumed): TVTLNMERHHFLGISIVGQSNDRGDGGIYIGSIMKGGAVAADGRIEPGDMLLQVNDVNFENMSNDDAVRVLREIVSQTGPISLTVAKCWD
Assay: In vitro CXXC5–DVL binding assay (FITC-tagged PTD-DBMP on DVL PDZ domain)
Conditions: compound 30 μM; fluorescent intensity normalized to DMSO-treated control
Procedure: After the addition of 10 μM FITC-tagged PTD-DBMP to each well, each compound in the chemical library or control (DMSO) was treated to the well at a final concentration of 30 μM. The fluorescence intensity was measured using a Fluorstar Optima microplate reader (BGM Lab Technologies, Ortenberg, Germany). The binding values were calculated as a percent ratio of the fluorescent intensity normalized to the DMSO-treated control.

Compound: O=C1Nc2ccccc2/C1=C1/Nc2ccccc2/C1=N\O [Compound 12, indirubin-3′-oxime, reference compound]
- CXXC5-DVL interaction (%): 7.65%

From paper PMC6458850, “CXXC5 mediates growth plate senescence and is a target for enhancement of longitudinal bone growth” (Life Science Alliance, 2019)
